Data reported in patent publication US20260242395A1, “AMINOHETEROARYL KINASE INHIBITORS” (ALLORION THERAPEUTICS INC, priority 2022, published 2026).

Assays:
Assay type in all cases: biochemical
[1] = target: T1, CDK2/CyclinE1 (Homo sapiens, UniProt P24941); experiment: CDK2/CyclinE1 kinase inhibitory activity (Caliper mobility shift); settings: enzyme 3 nM, ATP 77 μM, 28° C. 30 min; read-out: CDK2/Cyclin E1 IC50
T1 construct: purchased Carna 04-165
Method: CDK2/CyclinE1 kinase inhibitory activity (IC50): 5 μl of various dilutions of test compounds in 1×kinase buffer (50 mM HEPES pH 7.5, 10 mM MgCl2, 2 mM DTT and […] Brij-35) were mixed with 10 μL of CDK2/CyclinE1 (Carna, 04-165 #, final concentration 3 nM in 1×Kinase buffer) in 384 plates and incubated at room temperature for 10 min. To initiate each reaction, 10 μL of peptide solution containing fluorescently-labeled-peptide 18(5-FAM-QSPKKG-CONH2) (GL, 114202 #, final concentration 3000 nM) and ATP (final concentration 77 μM) in 1×Kinase buffer was added to each of the wells containing test compound and CDK2/CyclinE1 mixture. The reaction was then allowed to proceed at 28° C. for 30 min and terminated by the addition of 25 μL stop buffer (100 mM HEPES pH 7.5, 50 mM EDTA, 0.2% Coating Reagent #3 (Perkin Elmer, 760050 #) and 0.015% Brij-35).
Following the kinase reaction, Caliper EZ reader II (Downstream voltages: −500V, Upstream voltages: −2250V, Base pressure −0.5 PSI, Screen pressure −1.2 PSI) was used to separate the phosphorylated (product) and the unphosphorylated (substrate) fluorescently-labeled peptide 18 based on their different mobility. Both substrate and product were measured and the ratio of these values were used to generate % conversion by Caliper EZ reader II. These conversion values were then transformed into % inhibition of kinase activity using the formula: % Inhibition=[(MA−X)/(MA−MI)]×100% where MA=conversion value of DMSO only controls, MI=conversion value of no enzyme controls and X=conversion value at any given compound dose. IC50 values were then calculated by plotting dose-response curves and then using the XLfit application in Excel software.

[2] = target: T2, CDK4/CyclinD1 (Homo sapiens, UniProt P11802); experiment: CDK4/CyclinD1 kinase inhibitory activity (Caliper mobility shift); settings: enzyme 20 nM, ATP 672 uM, 28° C. 30 min; read-out: CDK4/Cyclin D1 IC50
T2 construct: purchased ProQinase 0142-0143-1
T2 sequence (P11802 whole entry): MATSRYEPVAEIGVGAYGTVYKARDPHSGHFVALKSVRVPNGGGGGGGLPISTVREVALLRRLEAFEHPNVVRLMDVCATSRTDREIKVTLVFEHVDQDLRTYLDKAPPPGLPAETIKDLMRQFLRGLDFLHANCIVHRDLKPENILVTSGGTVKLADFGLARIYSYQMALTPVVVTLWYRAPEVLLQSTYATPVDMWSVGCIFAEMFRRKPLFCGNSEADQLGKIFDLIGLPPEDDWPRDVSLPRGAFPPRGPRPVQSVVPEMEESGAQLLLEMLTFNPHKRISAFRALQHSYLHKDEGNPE
T2 sequence (P24385 whole entry partner): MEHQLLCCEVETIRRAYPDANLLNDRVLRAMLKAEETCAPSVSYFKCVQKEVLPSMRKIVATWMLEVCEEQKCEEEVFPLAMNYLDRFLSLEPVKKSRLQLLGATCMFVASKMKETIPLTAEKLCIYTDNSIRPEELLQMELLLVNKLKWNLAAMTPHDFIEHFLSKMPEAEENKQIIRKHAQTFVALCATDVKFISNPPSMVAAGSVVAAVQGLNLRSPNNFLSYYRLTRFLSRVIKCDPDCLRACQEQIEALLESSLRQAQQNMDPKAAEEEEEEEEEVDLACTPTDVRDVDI
How it was run: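 Recombinant CDK4/Cyclin D1 (20 nM final) preincubated 10 min at room temperature with compound in HEPES pH 7.5 buffer with MgCl2, DTT and Triton X-100. Reaction started with 3000 nM FAM-labelled peptide and 672 uM ATP, run 30 min at 28° C, stopped with EDTA. Mobility-shift % conversion gave % inhibition, and IC50 came from dose-response fits.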

[3] = target: T3, CDK6/CyclinD3 (Homo sapiens, UniProt Q00534); experiment: CDK6/CyclinD3 kinase inhibitory activity (Caliper mobility shift); settings: enzyme 15 nM, ATP 800 μM, 28° C. 30 min; read-out: CDK6/Cyclin D3 IC50
T3 construct: purchased Carna 04-107
T3 sequence (Q00534 whole entry): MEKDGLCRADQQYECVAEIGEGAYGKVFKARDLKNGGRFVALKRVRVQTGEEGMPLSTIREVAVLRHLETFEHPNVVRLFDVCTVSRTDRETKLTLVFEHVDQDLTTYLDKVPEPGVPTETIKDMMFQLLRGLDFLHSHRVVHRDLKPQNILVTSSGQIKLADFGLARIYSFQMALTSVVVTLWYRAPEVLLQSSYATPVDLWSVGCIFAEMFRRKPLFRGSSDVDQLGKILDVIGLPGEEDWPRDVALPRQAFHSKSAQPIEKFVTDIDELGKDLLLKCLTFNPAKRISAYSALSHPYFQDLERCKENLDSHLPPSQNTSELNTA
T3 sequence (P30281 whole entry partner): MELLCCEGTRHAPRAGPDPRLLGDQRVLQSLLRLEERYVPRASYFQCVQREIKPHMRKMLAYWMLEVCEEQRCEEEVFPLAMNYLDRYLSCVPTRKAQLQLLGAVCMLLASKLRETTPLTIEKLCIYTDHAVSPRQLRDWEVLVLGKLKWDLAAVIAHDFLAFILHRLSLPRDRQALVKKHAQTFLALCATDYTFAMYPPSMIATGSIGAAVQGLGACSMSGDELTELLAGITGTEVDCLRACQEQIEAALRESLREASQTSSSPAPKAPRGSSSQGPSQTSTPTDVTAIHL
How it was run: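 Compound preincubated 10 min at room temperature with CDK6/CyclinD3 (15 nM final) in HEPES pH 7.5/MgCl2/DTT buffer; reaction with 5-FAM peptide (3000 nM) and ATP 800 μM, 30 min at 28°C, stopped with EDTA. Substrate/product separated by microfluidic mobility shift; % conversion converted to % inhibition, IC50 from dose-response curves.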

SMILES | IC50 [1] | IC50 [2] | IC50 [3]
Cc1[nH]cnc1-c1cnc2c(F)cc(-c3nc(N[C@@H]4CCOC[C@H]4O)ncc3Cl)cc2c1 [Example 18, (3S,4R)-4-((5-chloro-4-(8-fluoro-3-(5-methyl-1H-imidazol-4-yl)quinolin-6-yl)pyrimidin-2-yl)amino)tetrahydro-2H-pyran-3-ol] | 100 to 1000 nM | < 10 nM | 100 to 1000 nM
O[C@@H]1COCC[C@H]1Nc1ncc(Cl)c(-c2cc(F)c3c(c2)N2CCNC[C@@H]2CO3)n1 [Example 19, (3S,4R)-4-((5-chloro-4-((R)-7-fluoro-1,2,3,4,4a,5-hexahydrobenzo[b]pyrazino[1,2-d][1,4]oxazin-9-yl)pyrimidin-2-yl)amino)tetrahydro-2H-pyran-3-ol] | 10 to 100 nM | < 10 nM | 10 to 100 nM
O[C@@H]1COCC[C@H]1Nc1ncc(Cl)c(-c2cc(F)c3ncc4c(c3c2)CNC2(CC2)C4)n1 [Example 21, (3S,4R)-4-((5-chloro-4-(7-fluoro-1,4-dihydro-2H-spiro[benzo[c][2,6]naphthyridine-3,1′-cyclopropan]-9-yl)pyrimidin-2-yl)amino)tetrahydro-2H-pyran-3-ol] | 100 to 1000 nM | < 10 nM | 100 to 1000 nM
CC(C)(O)c1cnc2c(F)cc(-c3nc(N[C@@H]4CCOC[C@H]4O)ncc3F)cc2c1Cl [Example 22, (3S,4R)-4-((4-(4-chloro-8-fluoro-3-(2-hydroxypropan-2-yl)quinolin-6-yl)-5-fluoropyrimidin-2-yl)amino)tetrahydro-2H-pyran-3-ol] | 100 to 1000 nM | < 10 nM | 10 to 100 nM
Cc1c(C(C)(C)O)cnc2c(F)cc(-c3nc(N[C@@H]4CCOC[C@H]4O)ncc3F)cc12 [Example 23, (3S,4R)-4-((5-fluoro-4-(8-fluoro-3-(2-hydroxypropan-2-yl)-4-methylquinolin-6-yl)pyrimidin-2-yl)amino)tetrahydro-2H-pyran-3-ol] | 10 to 100 nM | < 10 nM | 10 to 100 nM
CC1(C)Cc2cnc3c(F)cc(-c4nc(N[C@@H]5CCOC[C@H]5O)ncc4F)cc3c2CN1 [Example 24, (3S,4R)-4-((5-fluoro-4-(7-fluoro-3,3-dimethyl-1,2,3,4-tetrahydrobenzo[c][2,6]naphthyridin-9-yl)pyrimidin-2-yl)amino)tetrahydro-2H-pyran-3-ol] | 10 to 100 nM | < 10 nM | 10 to 100 nM
O[C@@H]1COCC[C@H]1Nc1cc(-c2cc(F)c3ncc4c(c3c2)CNCC4)c(Cl)cn1 [Example 25] | 10 to 100 nM | < 10 nM | 10 to 100 nM
CC(C)(N)c1cnc2ccc(-c3nc(N[C@@H]4CCOC[C@H]4O)ncc3Cl)cc2c1 [Example 26] | 100 to 1000 nM | 10 to 100 nM | ≥ 1000 nM
O[C@@H]1COCC[C@H]1Nc1ncc(Cl)c(-c2cc(F)c3ncc(C4(O)CC4)cc3c2)n1 [Example 29] | 100 to 1000 nM | 10 to 100 nM | 100 to 1000 nM
CC1(C)Cc2cnc3c(F)cc(-c4nc(N[C@@H]5CCOC[C@H]5O)ncc4Cl)cc3c2CN1 [Example 30] | 100 to 1000 nM | < 10 nM | 10 to 100 nM
CNC(C)(C)c1cnc2c(F)cc(-c3nc(N[C@@H]4CCOC[C@H]4O)ncc3Cl)cc2c1 [Example 36] | 100 to 1000 nM | 10 to 100 nM | 100 to 1000 nM
Cc1nc2c(F)cc(-c3nc(N[C@@H]4CCOC[C@H]4O)ncc3Cl)cc2c2c1CCN(C)C2 [Example 37] | ≥ 1000 nM | < 10 nM | 100 to 1000 nM
CC(C)(O)c1cnc2c(F)cc(-c3nc(N[C@@H]4CCOC[C@H]4O)ncc3C#N)cc2c1Cl [Example 41] | 100 to 1000 nM | < 10 nM | 10 to 100 nM
CC1(C)Cc2cnc3c(F)cc(-c4nc(N[C@@H]5CCOC[C@H]5O)ncc4C#N)cc3c2CN1 [Example 49] | 100 to 1000 nM | < 10 nM | 100 to 1000 nM
CC(C)(O)c1cnc2c(F)cc(-c3nc(Nc4ccc(-c5c[nH]cn5)cn4)ncc3F)cc2c1Cl [Example 52] | ≥ 1000 nM | < 10 nM | 10 to 100 nM
O[C@@H]1COCC[C@H]1Nc1ncc(F)c(-c2cc(F)c3ncc4c(c3c2)CNC2(CC2)C4)n1 [Example 56] | 10 to 100 nM | < 10 nM | 100 to 1000 nM
Cc1c(C(C)(C)O)cnc2c(C)cc(-c3nc(N[C@@H]4CCOC[C@H]4O)ncc3Cl)cc12 [Example 58] | ≥ 1000 nM | < 10 nM | 100 to 1000 nM
[2H]C([2H])([2H])C(O)(c1cc2cc(-c3nc(N[C@@H]4CCOC[C@H]4O)ncc3Cl)cc(F)c2nc1C)C([2H])([2H])[2H] [Example 60, (3S,4R)-4-((5-chloro-4-(8-fluoro-3-(2-hydroxypropan-2-yl-1,1,1,3,3,3-d6)-2-methylquinolin-6-yl)pyrimidin-2-yl)amino)tetrahydro-2H-pyran-3-ol] | ≥ 1000 nM | < 10 nM | 100 to 1000 nM
Cc1nc2c(F)cc(-c3nc(N[C@@H]4CCOC[C@H]4O)ncc3F)cc2c2c1CC1(CC1)NC2 [Example 65] | 100 to 1000 nM | < 10 nM | 100 to 1000 nM
[2H]c1nc2c(F)cc(-c3nc(N[C@@H]4CCOC[C@H]4O)ncc3C)cc2c2c1CC1(CC1)NC2 [Example 67] | ≥ 1000 nM | 10 to 100 nM | ≥ 1000 nM
[2H]c1nc(N[C@@H]2CCOC[C@H]2O)nc(-c2cc(F)c3nc([2H])c4c(c3c2)CNC2(CC2)C4)c1Cl [Example 68] | 100 to 1000 nM | < 10 nM | 10 to 100 nM
[2H]c1nc(N[C@@H]2CCOC[C@H]2O)nc(-c2cc(F)c3nc(C)c(C(C)(C)O)cc3c2)c1F [Example 83] | 100 to 1000 nM | < 10 nM | 100 to 1000 nM
[2H]c1nc2c(F)cc(-c3nc(N[C@@H]4CCOC[C@H]4O)ncc3F)cc2c(C)c1C(C)(C)O [Example 94] | 100 to 1000 nM | < 10 nM | 10 to 100 nM
Cc1nc2c(F)cc(-c3nc(N[C@@H]4CCOC[C@H]4O)ncc3Cl)cc2c2c1CC(C)(C)NC2 [Example 98] | 100 to 1000 nM | < 10 nM | 100 to 1000 nM
[2H]c1nc2c(F)cc(-c3nc(N[C@@H]4CCOC[C@H]4O)ncc3Cl)cc2c2c1CC(C)(C)NC2 [Example 100] | 100 to 1000 nM | < 10 nM | 10 to 100 nM
[2H]c1nc2c(F)cc(-c3nc(N[C@@H]4CCOC[C@H]4O)ncc3C)cc2c2c1CC(C)(C)NC2 [Example 102] | ≥ 1000 nM | < 10 nM | 100 to 1000 nM
CC1(C)Cc2cnc3c(F)cc(-c4ccnc(N[C@@H]5CCOC[C@H]5O)n4)cc3c2CN1 [Example 107] | 100 to 1000 nM | < 10 nM | 100 to 1000 nM
